# Laboratory results published in BindingDB's records for doi:10.1002/bip.20588 (University of California Davis, 2006).
# *1 amine or outer side, *2 acyl side, *3 side chain or, on linkers, in order; H or OH if unused. Where a SMILES comes first, the peptide text is derived from it. [ ]: non-standard residue; d: D form. The star is where a group is joined. ξ: configuration not given here. Leu(4,5-dehydro) = C=C(C)C[C@H](N)C(=O)O; X13 = CC(C(=O)[*:2])c1ccc(N[*:1])cc1; X9 = Cc1ccccc1NC(=O)Nc1cccc(N*)c1; X1 = O=C(Cc1ccc(N[*:1])cc1)[*:2]; Ile(3ξ) = CCC(C)[C@H](N)C(=O)O; NH(2-Me-phenyl) = Cc1ccccc1N*; Tle = CC(C)(C)[C@H](N)C(=O)O; β3hP = O=C(O)C[C@@H]1CCCN1; Dpg = CCCC(N)(CCC)C(=O)O; Nle = CCCC[C@H](N)C(=O)O; Dap = NC[C@H](N)C(=O)O; Ac3c = NC1(C(=O)O)CC1; Aib = CC(C)(N)C(=O)O; CO = O=C([*:1])[*:2]; Butyryl = CCCC(=O)*
# Target: Integrin alpha-4/beta-1 (Homo sapiens, UniProt P05556+P13612, T112H)
# Test: Jurkat Cell Adhesion Inhibition Assay
# Method: Binding affinities (IC50) of the ligands were studied in a Jurkat cell adhesion assay by inhibiting the alpha-4/beta-1 mediated cell adhesion to CS-1 peptides. The 96-well plates were coated with neutravidin, followed by biotinconjugated CS-1 peptides. Jurkat cells with series dilutions of tested ligands in binding buffer were added and allowed to bind for 30 min. Bound cells were recorded using a 96-well plate reader at 570 nm. IC50 values were calculated from inhibition curves resulting from the concentration-dependent inhibition
Structure (SMILES),"IC50 (pH 7.5, 22 °C) [nM]",IC50 [nM]
"CCCC[C@H](NC(=O)Cc1ccc(NC(=O)Nc2ccccc2C)cc1)C(=O)N[C@@H](CC(=O)O)C(=O)N[C@H](C(=O)N1CCCC[C@H]1C(N)=O)C(C)CC (stereo partly drawn) [(3S)-3-{[(2S,3S)-1-[(2S)-2-carbamoylpiperidin-1-yl]-3-methyl-1-oxopentan-2-yl]carbamoyl}-3-[(2S)-2-[1-(4-{[(2-methylphenyl)carbamoyl]amino}phenyl)acetamido]hexanamido]propanoic acid]",1.4,
"CCCC(CCC)(NC(=O)Cc1ccc(NC(=O)Nc2ccccc2C)cc1)C(=O)N[C@@H](CC(=O)O)C(=O)N[C@H](C(=O)N1CCC[C@H]1C(N)=O)C(C)CC (stereo partly drawn) [(3S)-3-{[(2S,3S)-1-[(2S)-2-carbamoylpyrrolidin-1-yl]-3-methyl-1-oxopentan-2-yl]carbamoyl}-3-{2-[1-(4-{[(2-methylphenyl)carbamoyl]amino}phenyl)acetamido]-2-propylpentanamido}propanoic acid] ({NH(2-Me-phenyl)-CO}-[X1][Dpg]D[Ile(3ξ)]P-NH2)",,450
"CCCC[C@H](NC(=O)Cc1ccc(NC(=O)Nc2ccccc2C)cc1)C(=O)N[C@@H](CC(=O)O)C(=O)N[C@H](C(=O)N1CCC[C@H]1C(N)=O)C(C)CC (stereo partly drawn) [(3S)-3-{[(2S,3S)-1-[(2S)-2-carbamoylpyrrolidin-1-yl]-3-methyl-1-oxopentan-2-yl]carbamoyl}-3-[(2S)-2-[1-(4-{[(2-methylphenyl)carbamoyl]amino}phenyl)acetamido]hexanamido]propanoic acid]",1.4,
"CCCC[C@H](NC(=O)Cc1ccc(NC(=O)Nc2ccccc2C)cc1)C(=O)N[C@@H](CC(=O)O)C(=O)N[C@H](C(=O)N1CCC2(CC1)C(=O)N(CC(N)=O)CN2c1ccccc1)C(C)CC (stereo partly drawn) [(3S)-3-{[(2S,3S)-1-[3-(carbamoylmethyl)-4-oxo-1-phenyl-1,3,8-triazaspiro[4.5]decan-8-yl]-3-methyl-1-oxopentan-2-yl]carbamoyl}-3-[(2S)-2-[1-(4-{[(2-methylphenyl)carbamoyl]amino}phenyl)acetamido]hexanamido]propanoic acid]",29,
"CCCC(=O)NC[C@H](NC(=O)Cc1ccc(NC(=O)Nc2ccccc2C)cc1)C(=O)N[C@@H](CC(=O)O)C(=O)N[C@H](C(=O)N1CCC[C@H]1C(N)=O)C(C)CC (stereo partly drawn) [(3S)-3-[(2S)-3-butanamido-2-[1-(4-{[(2-methylphenyl)carbamoyl]amino}phenyl)acetamido]propanamido]-3-{[(2S,3S)-1-[(2S)-2-carbamoylpyrrolidin-1-yl]-3-methyl-1-oxopentan-2-yl]carbamoyl}propanoic acid] ({NH(2-Me-phenyl)-CO}-[X1][Dap](Butyryl)D[Ile(3ξ)]P-NH2)",,138
"CCCC[C@H](NC(=O)Cc1ccc(NC(=O)Nc2ccccc2C)cc1)C(=O)N[C@@H](CC(=O)O)C(=O)N[C@H](C(=O)N1CCCC[C@@H]1C(N)=O)C(C)CC (stereo partly drawn) [(3S)-3-{[(2S,3S)-1-[(2R)-2-carbamoylpiperidin-1-yl]-3-methyl-1-oxopentan-2-yl]carbamoyl}-3-[(2S)-2-[1-(4-{[(2-methylphenyl)carbamoyl]amino}phenyl)acetamido]hexanamido]propanoic acid]",3,
"CCCC[C@H](NC(=O)Cc1ccc(NC(=O)Nc2ccccc2C)cc1)C(=O)N[C@@H](CC(=O)O)C(=O)N[C@H](C(=O)N1CC(OCc2ccccc2)C[C@H]1C(N)=O)C(C)CC (stereo partly drawn) [(3S)-3-{[(2S,3S)-1-[(2S)-4-(benzyloxy)-2-carbamoylpyrrolidin-1-yl]-3-methyl-1-oxopentan-2-yl]carbamoyl}-3-[(2S)-2-[1-(4-{[(2-methylphenyl)carbamoyl]amino}phenyl)acetamido]hexanamido]propanoic acid]",5.3,
CCCC[C@H](NC(=O)Cc1ccc(NC(=O)Nc2ccccc2C)cc1)C(=O)N[C@@H](CC(=O)O)C(=O)NC(C)(C)C(=O)N1CCC[C@H]1C(N)=O [(3S)-3-({1-[(2S)-2-carbamoylpyrrolidin-1-yl]-2-methyl-1-oxopropan-2-yl}carbamoyl)-3-[(2S)-2-[1-(4-{[(2-methylphenyl)carbamoyl]amino}phenyl)acetamido]hexanamido]propanoic acid] ({NH(2-Me-phenyl)-CO}-[X1][Nle]D[Aib]P-NH2),,13
CCCC[C@H](NC(=O)Cc1ccc(NC(=O)Nc2ccccc2C)cc1)C(=O)N[C@@H](CC(=O)O)C(=O)NC1(C(=O)N2CCC[C@H]2C(N)=O)CC1 [(3S)-3-[(1-{[(2S)-2-carbamoylpyrrolidin-1-yl]carbonyl}cyclopropyl)carbamoyl]-3-[(2S)-2-[1-(4-{[(2-methylphenyl)carbamoyl]amino}phenyl)acetamido]hexanamido]propanoic acid] ({NH(2-Me-phenyl)-CO}-[X1][Nle]D[Ac3c]P-NH2),,9.2
"CCCC[C@H](NC(=O)Nc1cccc(NC(=O)Nc2ccccc2C)c1)C(=O)N[C@@H](CC(=O)O)C(=O)N[C@H](C(=O)N1CCC[C@H]1C(N)=O)C(C)CC (stereo partly drawn) [(3S)-3-{[(2S,3S)-1-[(2S)-2-carbamoylpyrrolidin-1-yl]-3-methyl-1-oxopentan-2-yl]carbamoyl}-3-[(2S)-2-{[(3-{[(2-methylphenyl)carbamoyl]amino}phenyl)carbamoyl]amino}hexanamido]propanoic acid] ({X9-CO}-[Nle]D[Ile(3ξ)]P-NH2)",,3080
CCCC[C@H](NC(=O)Cc1ccc(NC(=O)Nc2ccccc2C)cc1)C(=O)N[C@@H](CC(=O)O)C(=O)N[C@H](C(=O)N1CCC[C@H]1C(N)=O)C(C)C [(3S)-3-{[(2S)-1-[(2S)-2-carbamoylpyrrolidin-1-yl]-3-methyl-1-oxobutan-2-yl]carbamoyl}-3-[(2S)-2-[1-(4-{[(2-methylphenyl)carbamoyl]amino}phenyl)acetamido]hexanamido]propanoic acid] ({NH(2-Me-phenyl)-CO}-[X1][Nle]DVP-NH2),,0.6
"CCCC[C@H](NC(=O)Cc1ccc(NC(=O)Nc2ccccc2C)cc1)C(=O)N[C@@H](CC(=O)O)C(=O)N[C@H](C(=O)NC1CCCC1C(N)=O)C(C)CC (stereo partly drawn) [(3S)-3-{[(1S,2S)-1-[(2-carbamoylcyclopentyl)carbamoyl]-2-methylbutyl]carbamoyl}-3-[(2S)-2-[1-(4-{[(2-methylphenyl)carbamoyl]amino}phenyl)acetamido]hexanamido]propanoic acid]",3.4,

# The remaining lines, values ahead:
"IC50 (pH 7.5, 22 °C) [nM]",IC50 [nM],Structure (SMILES)
,3.1,"CCCC[C@H](NC(=O)C(C)c1ccc(NC(=O)Nc2ccccc2C)cc1)C(=O)N[C@@H](CC(=O)O)C(=O)N[C@H](C(=O)N1CCC[C@H]1C(N)=O)C(C)CC (stereo partly drawn) [(3S)-3-{[(2S,3S)-1-[(2S)-2-carbamoylpyrrolidin-1-yl]-3-methyl-1-oxopentan-2-yl]carbamoyl}-3-[(2S)-2-[2-(4-{[(2-methylphenyl)carbamoyl]amino}phenyl)propanamido]hexanamido]propanoic acid] ({NH(2-Me-phenyl)-CO}-[X13][Nle]D[Ile(3ξ)]P-NH2)"
,2.8,"C=C(C)C[C@H](NC(=O)Cc1ccc(NC(=O)Nc2ccccc2C)cc1)C(=O)N[C@@H](CC(=O)O)C(=O)N[C@H](C(=O)N1CCC[C@H]1C(N)=O)C(C)CC (stereo partly drawn) [(3S)-3-{[(2S,3S)-1-[(2S)-2-carbamoylpyrrolidin-1-yl]-3-methyl-1-oxopentan-2-yl]carbamoyl}-3-[(2S)-4-methyl-2-[1-(4-{[(2-methylphenyl)carbamoyl]amino}phenyl)acetamido]pent-4-enamido]propanoic acid] ({NH(2-Me-phenyl)-CO}-[X1][Leu(4,5-dehydro)]D[Ile(3ξ)]P-NH2)"
,1.9,"CCC(C)[C@H](NC(=O)[C@H](CC(=O)O)NC(=O)[C@H](CC(C)C)NC(=O)Cc1ccc(NC(=O)Nc2ccccc2C)cc1)C(=O)N1CCC[C@H]1C(N)=O (stereo partly drawn) [(3S)-3-{[(2S,3S)-1-[(2S)-2-carbamoylpyrrolidin-1-yl]-3-methyl-1-oxopentan-2-yl]carbamoyl}-3-[(2S)-4-methyl-2-[1-(4-{[(2-methylphenyl)carbamoyl]amino}phenyl)acetamido]pentanamido]propanoic acid] ({NH(2-Me-phenyl)-CO}-[X1]LD[Ile(3ξ)]P-NH2)"
3.1,,"CCCC[C@H](NC(=O)Cc1ccc(NC(=O)Nc2ccccc2C)cc1)C(=O)N[C@@H](CC(=O)O)C(=O)N[C@H](C(=O)N1CCC[C@H]1CC(N)=O)C(C)CC (stereo partly drawn) [(3S)-3-{[(2S,3S)-1-[(2S)-2-(carbamoylmethyl)pyrrolidin-1-yl]-3-methyl-1-oxopentan-2-yl]carbamoyl}-3-[(2S)-2-[1-(4-{[(2-methylphenyl)carbamoyl]amino}phenyl)acetamido]hexanamido]propanoic acid] ({NH(2-Me-phenyl)-CO}-[X1][Nle]D[Ile(3ξ)][β3hP]-NH2)"
,7.1,"CCC(C)[C@H](NC(=O)[C@H](CC(=O)O)NC(=O)[C@@H](NC(=O)Cc1ccc(NC(=O)Nc2ccccc2C)cc1)C(C)(C)C)C(=O)N1CCC[C@H]1C(N)=O (stereo partly drawn) [(3S)-3-{[(2S,3S)-1-[(2S)-2-carbamoylpyrrolidin-1-yl]-3-methyl-1-oxopentan-2-yl]carbamoyl}-3-[(2S)-3,3-dimethyl-2-[1-(4-{[(2-methylphenyl)carbamoyl]amino}phenyl)acetamido]butanamido]propanoic acid] ({NH(2-Me-phenyl)-CO}-[X1][Tle]D[Ile(3ξ)]P-NH2)"
2.9,,"CCCC[C@H](NC(=O)Cc1ccc(NC(=O)Nc2ccccc2C)cc1)C(=O)N[C@@H](CC(=O)O)C(=O)N[C@H](C(=O)N1CCC[C@@H]1C(N)=O)C(C)CC (stereo partly drawn) [(3S)-3-{[(2S,3S)-1-[(2R)-2-carbamoylpyrrolidin-1-yl]-3-methyl-1-oxopentan-2-yl]carbamoyl}-3-[(2S)-2-[1-(4-{[(2-methylphenyl)carbamoyl]amino}phenyl)acetamido]hexanamido]propanoic acid]"
3.2,,"CCCC[C@H](NC(=O)Cc1ccc(NC(=O)Nc2ccccc2C)cc1)C(=O)N[C@@H](CC(=O)O)C(=O)N[C@H](C(=O)N1Cc2ccccc2C[C@@H]1C(N)=O)C(C)CC (stereo partly drawn) [(3S)-3-{[(2S,3S)-1-[(3R)-3-carbamoyl-1,2,3,4-tetrahydroisoquinolin-2-yl]-3-methyl-1-oxopentan-2-yl]carbamoyl}-3-[(2S)-2-[1-(4-{[(2-methylphenyl)carbamoyl]amino}phenyl)acetamido]hexanamido]propanoic acid]"
